The values that follow come from ChEMBL document CHEMBL3638506, “Conjugated 3-(indolyl)- and 3-(azaindolyl)-4-arylmaleimide compounds and their use in tumor treatment” (2015).

In this experiment the target is Glycogen synthase kinase-3 beta (Homo sapiens, UniProt P49841). Nature of the experiment: Kinase Assay: The effect of test compounds on the activity of the protein kinases GSK-3β, VEGFR-2 and FLT-3 was evaluated based on half maximal inhibitory concentration (IC50) values determined by Millipore UK Ltd; Gemini Crescent; Dundee Technology Park; Dundee DD2 1SW; UK (IC50Profiler). Detailed protocols can be found at: www.millipore.com/drugdiscovery/dd3/assayprotocols.
Sequence of Glycogen synthase kinase-3 beta (P49841 whole entry): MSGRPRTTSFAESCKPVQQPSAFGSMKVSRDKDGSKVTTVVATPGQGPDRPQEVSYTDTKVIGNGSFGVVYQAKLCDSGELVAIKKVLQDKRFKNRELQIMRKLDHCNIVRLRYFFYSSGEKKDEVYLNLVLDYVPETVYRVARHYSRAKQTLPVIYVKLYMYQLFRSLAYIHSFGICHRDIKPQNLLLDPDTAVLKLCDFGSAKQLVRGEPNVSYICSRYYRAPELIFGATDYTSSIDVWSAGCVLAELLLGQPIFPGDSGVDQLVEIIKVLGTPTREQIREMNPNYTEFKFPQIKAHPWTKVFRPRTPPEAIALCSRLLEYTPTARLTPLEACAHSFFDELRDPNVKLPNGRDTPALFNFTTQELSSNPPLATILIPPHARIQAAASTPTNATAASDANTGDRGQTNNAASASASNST

Each structure is given as a SMILES string.

The term IC50 denotes the concentration needed to halve the response being measured. High values mean lower potency, low ones higher potency. The compound `COc1cc(C2=C(c3cn(CCCO)c4ccccc34)C(=O)NC2=O)cc(OC)c1OC` came in with an IC50 of 3.39 µM.
